# Test results: patent US20220267288A1, “CARDIAC THERAPEUTIC” (priority 2019, published 2022)
# Marks after values point to notes of the source that are not given here.
# Key:
# CYP3A5 = target: T1, CYP3A5 (Homo sapiens, UniProt P20815); test: Metabolic stability (substrate depletion) with CYP3A5; type: in vitro ADME; conditions: for elimination rate constant k by CYP3A5 / half-life at 1 μM: 1 μM substrate, CYP3A5 10 pmol/mL; for CLint (CYP3A5): PBPK parameter, in vitro data obtained; for half-life at 1 μM: human, CYP3A5 enzyme, pH 7.4, read-out: T1/2 by CYP3A5; for Intrinsic clearance, CLint CYP3A5: substrate depletion
# T1 construct: purchased BD Gentest (Woburn, Mass.)
# T1 sequence (P20815 whole entry): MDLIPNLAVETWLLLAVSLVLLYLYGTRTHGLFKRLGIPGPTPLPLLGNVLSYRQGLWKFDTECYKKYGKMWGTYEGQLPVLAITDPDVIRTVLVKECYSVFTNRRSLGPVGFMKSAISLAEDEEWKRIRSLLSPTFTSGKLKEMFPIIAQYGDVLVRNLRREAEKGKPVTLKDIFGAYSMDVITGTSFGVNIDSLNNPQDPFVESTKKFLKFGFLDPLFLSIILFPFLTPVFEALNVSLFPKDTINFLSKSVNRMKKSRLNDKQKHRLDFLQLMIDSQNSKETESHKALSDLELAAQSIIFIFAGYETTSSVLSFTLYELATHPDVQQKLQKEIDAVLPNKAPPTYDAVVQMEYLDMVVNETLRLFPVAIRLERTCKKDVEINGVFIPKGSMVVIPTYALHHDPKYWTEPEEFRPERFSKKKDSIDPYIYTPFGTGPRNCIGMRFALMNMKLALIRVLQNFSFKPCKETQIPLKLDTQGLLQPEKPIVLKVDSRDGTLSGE
# Method: The metabolic stability experiments were performed to derive intrinsic clearance (CLint) values via the substrate depletion method. […] NADPH A was subsequently added to initiate the reaction. […] The reaction mixtures were incubated at 37° C. with gentle agitation. At the respective time points (0-60 min), 80 μL of the reaction mixture was quenched using an equal volume of ice-cold ACN with 1 μM tamoxifen as internal standard (IS). The samples were then centrifuged at 3220 g at 4° C. for 30 min before transferring the supernatant to a 96-well plate for liquid chromatography-tandem mass spectrometry (LC-MS/MS) analysis.
# The mean of triplicate peak area ratios for each compound was normalized to that of the same compound at the 0 min time point to obtain the percentage of substrate remaining at each time point. This was plotted against incubation time for each compound and the data was then fitted to a one-phase decay model using GraphPad Prism software (version 8.02; GraphPad Inc., San Diego, Calif.) to obtain an estimation for the elimination rate constant (k). CLint was then calculated based on equation 3:
# In equation 3, k=elimination rate constant (min^−1); V=volume of incubation mixture (mL); P=amount of protein in mixture (mg).
# H9c2 cells = test: Reduction of intracellular ATP (Mitochondrial ToxGlo) in differentiated H9c2 cells; type: cell-based; conditions: Rattus norvegicus; H9c2 cells, 6 h exposure; read-out: decrease in intracellular ATP levels IC50
# Method: H9c2 cell line was purchased from American Tissue Type Collection (ATCC) (Manassas, Va.). The cells were cultured in low-glucose DMEM growth media (Cat No: 31600, Thermo Fisher Scientific, Waltham, Mass.) supplemented with 1.5 g/L sodium bicarbonate, 25 mM HEPES, 10% fetal bovine serum (FBS) (GE Healthcare, Singapore), 100 units/mL penicillin, 100 μg/mL streptomycin and 250 ng/mL amphotericin B in 75-cm^2 tissue-culture flasks at 37° C. in a humidified atmosphere of 5% CO2. Cells were fed every 2-3 days and sub-cultured once 70-80% confluency was achieved to prevent the loss of differentiation potential. For differentiation, H9c2 cells were seeded at a density of 100,000 cells/well in 12-well plates. The cells were maintained for 1 day in low-glucose high-serum growth media to allow for cell attachment. Subsequently, cells were differentiated using 1 μM ATRA.
# H9c2 cells were seeded in a white chimney plate and differentiated. The media was changed to DMEM with 10 mM galactose, 2 mM glutamine (6 mM final), 5 mM HEPES, 1 mM sodium pyruvate, 100 U/mL penicillin, 100 μg/mL streptomycin, 0.25 μg/mL amphotericin B, 1% FBS, 1× insulin-transferrin-selenium and 1 μM ATRA for 48 h to overcome the Crabtree effect. […] The cytotoxicity and intracellular ATP content were measured concurrently using Mitochondrial ToxGlo™ kit (Promega, Madison, Wis.) using manufacturer's protocol. Mitochondrial ToxGlo™ assay measures the cell viability using fluorogenic peptide bis-alanine-alanine-phenylalanine-R110 (bis-AAF-R110). Bis-AAF-R110 is a selective peptide that measures protease activity in dead cells since it is impermeable to live cells. Here, the fluorescence derived from metabolized bis-AAF-R110 was measured at different concentrations of the test compounds and compared to control. As the concentration of cytotoxic compound increases, the number of dead cells increases, leading to a higher fluorescence signal. ATP is measured by adding the ATP Detection Reagent, resulting in cell lysis and generation of a luminescent signal proportional to the amount of ATP present. […]
# CYP2J2 = target: T2, CYP2J2 (Homo sapiens, UniProt P51589); test: In-vitro metabolic half-life with recombinant CYP2J2; type: in vitro ADME; conditions: recombinant CYP2J2, NADPH, 1 μM drug, read-out: Metabolic half-life (T1/2)
# T2 sequence (P51589 1-502): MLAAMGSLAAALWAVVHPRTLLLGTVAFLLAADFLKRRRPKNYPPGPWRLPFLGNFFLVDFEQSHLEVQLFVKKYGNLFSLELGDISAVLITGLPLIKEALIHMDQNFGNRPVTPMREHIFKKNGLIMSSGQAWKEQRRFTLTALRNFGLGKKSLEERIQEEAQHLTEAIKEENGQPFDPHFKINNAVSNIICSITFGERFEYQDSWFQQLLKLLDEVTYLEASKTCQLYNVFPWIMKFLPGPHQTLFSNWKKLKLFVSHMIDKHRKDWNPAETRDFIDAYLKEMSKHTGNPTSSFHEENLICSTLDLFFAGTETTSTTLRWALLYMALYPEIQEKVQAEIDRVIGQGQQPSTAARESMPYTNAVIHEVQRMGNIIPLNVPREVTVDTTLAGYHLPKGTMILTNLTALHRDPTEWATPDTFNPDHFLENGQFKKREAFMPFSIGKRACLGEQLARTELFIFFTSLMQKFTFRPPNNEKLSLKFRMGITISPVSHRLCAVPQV
SMILES,elimination rate constant k by CYP3A5 (CYP3A5) [min⁻¹],CLint (CYP3A5) (CYP3A5),half-life at 1 μM (CYP3A5) [min],"Intrinsic clearance, CLint CYP3A5 (CYP3A5) [µL/min/pmol]","Intrinsic clearance, CLint CYP3A5 (CYP3A5; listed as dronedarone) [µL/min/pmol]",IC50 (H9c2 cells) [µM],half-life at 1 μM (CYP2J2) [min],"Intrinsic clearance, CLint CYP3A5 (CYP3A5; listed as poyendarone) [µL/min/pmol]"
CCCCc1oc2ccc(NS(C)(=O)=O)cc2c1C(=O)c1ccc(OCCCN(CCCC)CCCC)cc1.Cl [Dronedarone],0.03989,14.1812* μL/min/mg microsomal protein,17.4,3.99,3.989,3.1,4.95,
"Cl.[2H]c1c(NS(C)(=O)=O)c([2H])c2c(C(=O)c3ccc(OCCCN(CCCC)CCCC)cc3)c(CCCC)oc2c1[2H] [Poyendarone, Methanesulfonamide, N-(2-butyl-3-(4-(3-(dibutylamino)propoxy)benzoyl)-1-benzo(4,6,7-d3)-furan-5-yl)hydrochloride]",0.02757,14.2384* μL/min/mg microsomal protein,25.1,2.76,,41.5,5.32,2.757
